Assay results reported in US20110053836A1, “USE OF DEFENSINS AGAINST TUBERCULOSIS” (priority 2008, published 2011).
Like-named read-outs stand apart in the source and are kept apart here.

Columns and labels:
Type in all cases: cell-based, Mycobacterium tuberculosis
M. tuberculosis H37Rv = conditions: for Fold of reduction: RLU relative to buffer control; for MIC: concentration that reduces RLU by 90% (1 log), 96 hours
H37Rv expressing LUX = conditions: 6.25 micrograms/ml; ~0.1 OD600 and ~1.0 OD600; 96 hours
M. tuberculosis [1] = test system: M. tuberculosis
M. tuberculosis [2] = test system: M. tuberculosis; remark: listed apart in the source
Experimental: The validation of the Relative Light Unit assay (RLU) was carried out by comparing it to conventional Colony Forming Unit (CFU) assay. In this assay, the cells were exposed to the different concentrations of the peptide for 96 hours and then plated onto 7H10 plates. The plates were incubated at 37° C. for 30 days and the colonies were enumerated.

[3] = peptide 25 micrograms/ml, buffer control 53503
[4] = peptide 6.25 micrograms/ml, buffer control 75380

## SEQ ID NO: 3: plectasin variant, substitutions Q14K + K26R compared to SEQ ID NO: 2 (GFGCNGPWDEDDMKCHNHCKSIKGYRGGYCAKGGFVCKCY)
M. tuberculosis H37Rv; peptide 25 micrograms/ml
  Fold of reduction: 23.2
M. tuberculosis H37Rv; [3]
  RLU: 2310

## SEQ ID NO: 4: plectasin variant, substitution K26R compared to SEQ ID NO: 2 (GFGCNGPWDEDDMQCHNHCKSIKGYRGGYCAKGGFVCKCY)
M. tuberculosis H37Rv; peptide 25 micrograms/ml
  Fold of reduction: 28.1
M. tuberculosis H37Rv; [3]
  RLU: 1903

## SEQ ID NO: 5: plectasin variant, substitution Q14F compared to SEQ ID NO: 2 (GFGCNGPWDEDDMFCHNHCKSIKGYKGGYCAKGGFVCKCY)
M. tuberculosis H37Rv; peptide 25 micrograms/ml
  Fold of reduction: 34.1
M. tuberculosis H37Rv; [3]
  RLU: 1567

## SEQ ID NO: 6: plectasin variant, substitutions Q14R + K26R + K38R compared to SEQ ID NO: 2 (GFGCNGPWDEDDMRCHNHCKSIKGYRGGYCAKGGFVCRCY)
M. tuberculosis H37Rv; peptide 25 micrograms/ml
  Fold of reduction: 11.9
M. tuberculosis H37Rv; [3]
  RLU: 4483

## SEQ ID NO: 7: plectasin variant, substitutions Q14R + K20R compared to SEQ ID NO: 2 (GFGCNGPWDEDDMRCHNHCRSIKGYKGGYCAKGGFVCKCY)
M. tuberculosis H37Rv
  MIC: 6.25 micrograms/ml
M. tuberculosis H37Rv; peptide 25 micrograms/ml
  Fold of reduction: 40.0
M. tuberculosis H37Rv; [3]
  RLU: 1339

## SEQ ID NO: 8: plectasin variant, substitution Q14L compared to SEQ ID NO: 2 (GFGCNGPWDEDDMLCHNHCKSIKGYKGGYCAKGGFVCKCY)
M. tuberculosis H37Rv; peptide 25 micrograms/ml
  Fold of reduction: 24.9
M. tuberculosis H37Rv; [3]
  RLU: 2145

## SEQ ID NO: 9: plectasin variant, substitutions N5R + M13V compared to SEQ ID NO: 2 (GFGCRGPWDEDDVQCHNHCKSIKGYKGGYCAKGGFVCKCY)
M. tuberculosis H37Rv
  MIC: 6.25 micrograms/ml
M. tuberculosis H37Rv; peptide 25 micrograms/ml
  Fold of reduction: 31.8
M. tuberculosis H37Rv; [3]
  RLU: 1685

## SEQ ID NO: 10: plectasin variant, substitutions M13K + K38R compared to SEQ ID NO: 2 (GFGCNGPWDEDDKQCHNHCKSIKGYKGGYCAKGGFVCRCY)
M. tuberculosis H37Rv; peptide 25 micrograms/ml
  Fold of reduction: 46.4
M. tuberculosis H37Rv; [3]
  RLU: 1152

## SEQ ID NO: 11: plectasin variant, substitutions Q14R + K26R compared to SEQ ID NO: 2 (GFGCNGPWDEDDMRCHNHCKSIKGYRGGYCAKGGFVCKCY)
M. tuberculosis H37Rv; peptide 25 micrograms/ml
  Fold of reduction: 14.8
M. tuberculosis H37Rv; [3]
  RLU: 3604

## SEQ ID NO: 12: plectasin variant, substitutions N5S + D9S + M13L + Q14R + N17V + A31S compared to SEQ ID NO: 2 (GFGCSGPWSEDDLRCHVHCKSIKGYKGGYCSKGGFVCKCY)
M. tuberculosis H37Rv; peptide 25 micrograms/ml
  Fold of reduction: 13.7
M. tuberculosis H37Rv; [3]
  RLU: 3901

## SEQ ID NO: 13: plectasin variant, substitutions N5G + M13L compared to SEQ ID NO: 2 (GFGCGGPWDEDDLQCHNHCKSIKGYKGGYCAKGGFVCKCY)
M. tuberculosis H37Rv; peptide 25 micrograms/ml
  Fold of reduction: 20.8
M. tuberculosis H37Rv; [3]
  RLU: 2576

## SEQ ID NO: 14: plectasin variant, substitutions N5G + D9S + M13L + N17Q + A31T compared to SEQ ID NO: 2 (GFGCGGPWSEDDLQCHQHCKSIKGYKGGYCTKGGFVCKCY)
H37Rv expressing LUX
  Activity against early log and early stationary cells: potent activity against organisms in both early log and early stationary phases of growth
M. tuberculosis H37Rv; peptide 25 micrograms/ml
  Fold of reduction: 49.4
M. tuberculosis H37Rv; [3]
  RLU: 1083
M. tuberculosis [1]; 6.25 micrograms/ml, T-25 flasks
  Inhibition of growth by OD600: completely inhibit the growth
M. tuberculosis [1]; confirmed by the assays of Examples 3 and 4 (CFU, OD600)
  MIC (=MBC): 6.25 micrograms/ml
M. tuberculosis [2]; 96 hours exposure, plated on 7H10, 30 days
  MBC obtained by CFU: 6.25 micrograms/ml
M. tuberculosis [2]; MIC by RLU equivalent to MBC by CFU
  Mode of action (bactericidal): bactericidal

## SEQ ID NO: 15: plectasin variant, substitutions D9N + M13L + Q14R compared to SEQ ID NO: 2 (GFGCNGPWNEDDLRCHNHCKSIKGYKGGYCAKGGFVCKCY)
M. tuberculosis H37Rv; peptide 25 micrograms/ml
  Fold of reduction: 12.9
M. tuberculosis H37Rv; [3]
  RLU: 4165

## SEQ ID NO: 16: plectasin variant, substitutions D9G + Q14R + K23R compared to SEQ ID NO: 2 (GFGCNGPWGEDDMRCHNHCKSIRGYKGGYCAKGGFVCKCY)
M. tuberculosis H37Rv; peptide 25 micrograms/ml
  Fold of reduction: 11.9
M. tuberculosis H37Rv; [3]
  RLU: 4495

## SEQ ID NO: 17: plectasin variant, substitutions D9S + M13L + Q14R + K26R compared to SEQ ID NO: 2 (GFGCNGPWSEDDLRCHNHCKSIKGYRGGYCAKGGFVCKCY)
M. tuberculosis H37Rv
  MIC: ~6.25 micrograms/ml
M. tuberculosis H37Rv; peptide 6.25 micrograms/ml
  Fold of reduction: 9.1
M. tuberculosis H37Rv; [4]
  RLU: 8321

## SEQ ID NO: 18: plectasin variant, substitutions D9S + Q14R + K26R compared to SEQ ID NO: 2 (GFGCNGPWSEDDMRCHNHCKSIKGYRGGYCAKGGFVCKCY)
M. tuberculosis H37Rv
  MIC: ~6.25 micrograms/ml
M. tuberculosis H37Rv; peptide 6.25 micrograms/ml
  Fold of reduction: 9.8
M. tuberculosis H37Rv; [4]
  RLU: 7702

## SEQ ID NO: 19: plectasin variant, substitutions D9S + Q14K + K26R compared to SEQ ID NO: 2 (GFGCNGPWSEDDMKCHNHCKSIKGYRGGYCAKGGFVCKCY)
M. tuberculosis H37Rv
  MIC: ~6.25 micrograms/ml
M. tuberculosis H37Rv; peptide 6.25 micrograms/ml
  Fold of reduction: 9.9
M. tuberculosis H37Rv; [4]
  RLU: 7630

## SEQ ID NO: 20: plectasin variant, substitutions D9S + M13L + Q14K + V36L compared to SEQ ID NO: 2 (GFGCNGPWSEDDLKCHNHCKSIKGYKGGYCAKGGFLCKCY)
M. tuberculosis H37Rv
  MIC: 6.25 micrograms/ml
M. tuberculosis H37Rv; peptide 6.25 micrograms/ml
  Fold of reduction: 14.1
M. tuberculosis H37Rv; [4]
  RLU: 5355

## plectasin [SEQ ID NO: 2, reference compound]
M. tuberculosis H37Rv
  MIC: around 25 micrograms/ml
M. tuberculosis H37Rv; peptide 25 micrograms/ml
  Fold of reduction: 25.7
M. tuberculosis H37Rv; [3]
  RLU: 2070
